The source of these data is patent publication US11312713B2, “Imidazo[4,5-C]quinoline derivatives as LRRK2 inhibitors” (Pfizer Inc., priority 2017, dated 2022).

What is called pIC50 is the IC50 on a negative log10 scale, so that one unit is a factor of ten.

The target in assay [1] is LRRK2, WT (GST-tagged truncated LRRK2) (Homo sapiens, UniProt Q5S007). Kind of assay: LRRK2 kinase assay (LanthaScreen), wild type. Type of assay: biochemical. To be noted: LanthaScreen, LRRKtide substrate. The protocol:
(§1) LRRK2 kinase activity was measured using Lantha Screen technology from Invitrogen. GST-tagged truncated LRRK2 from Invitrogen (Cat #PV4874) was incubated with a fluorescein-labeled peptide substrate based upon ezrin/radixin/moesin (ERM), also known as LRRKtide (Invitrogen cat #PR8976A), in the presence of a dose response of compound. Upon completion, the assay was stopped and detected with a terbium labeled anti-phospho-ERM antibody (Invitrogen, cat #PR8975A). […] Using Echo acoustic dispensing, 60 nL of compound was transferred to a low volume Corning 384-well assay plate. 3 μL of a working solution of substrate (200 nM LRRKtide, 2 mM ATP) prepared in assay buffer (50 mM HEPES, pH 7.5, 3 mM MgCl2, with 2 mM DTT and 0.01% Brij35 added fresh) was added to the 60 nL compound assay plate. The kinase reaction was started with 3 μL of a working solution of LRRK2 enzyme at a concentration of 4 μg/m L. The final reaction concentrations were 100 nM LRRKtide, 1 mM ATP, 2 μg/mL LRRK2 enzyme and a compound dose response with a top dose of 3 μM. The reaction was allowed to progress at room temperature for 30 minutes and then stopped with the addition of 6 μL of detection buffer (20 mM Tris pH 7.6, 0.01% NP-40, 6 mM EDTA with 2 nM terbium labeled antiphospho-ERM). […] All final concentrations of substrate ATP and enzyme were the same.
(In TR-FRET formats the signal depends on donor and acceptor labels being close together.)

A further assay deals with mutant G2019S LRRK2 (Homo sapiens (Human), UniProt Q5S007, G2019S). Kind of assay: LRRK2 kinase assay (LanthaScreen), G2019S mutant. The class given is biochemical. The settings on record: LanthaScreen, LRRKtide substrate. The protocol: as §1
Setting [2] is: G2019S mutant LRRK2, read-out: LRRK2, G2019S IC50.

The structures appear in SMILES notation. pIC50: −log10 of the molar value. Like-named read-outs stand apart in the source and are kept apart here.

Chain of mutant G2019S LRRK2 (Q5S007 whole entry G2019S): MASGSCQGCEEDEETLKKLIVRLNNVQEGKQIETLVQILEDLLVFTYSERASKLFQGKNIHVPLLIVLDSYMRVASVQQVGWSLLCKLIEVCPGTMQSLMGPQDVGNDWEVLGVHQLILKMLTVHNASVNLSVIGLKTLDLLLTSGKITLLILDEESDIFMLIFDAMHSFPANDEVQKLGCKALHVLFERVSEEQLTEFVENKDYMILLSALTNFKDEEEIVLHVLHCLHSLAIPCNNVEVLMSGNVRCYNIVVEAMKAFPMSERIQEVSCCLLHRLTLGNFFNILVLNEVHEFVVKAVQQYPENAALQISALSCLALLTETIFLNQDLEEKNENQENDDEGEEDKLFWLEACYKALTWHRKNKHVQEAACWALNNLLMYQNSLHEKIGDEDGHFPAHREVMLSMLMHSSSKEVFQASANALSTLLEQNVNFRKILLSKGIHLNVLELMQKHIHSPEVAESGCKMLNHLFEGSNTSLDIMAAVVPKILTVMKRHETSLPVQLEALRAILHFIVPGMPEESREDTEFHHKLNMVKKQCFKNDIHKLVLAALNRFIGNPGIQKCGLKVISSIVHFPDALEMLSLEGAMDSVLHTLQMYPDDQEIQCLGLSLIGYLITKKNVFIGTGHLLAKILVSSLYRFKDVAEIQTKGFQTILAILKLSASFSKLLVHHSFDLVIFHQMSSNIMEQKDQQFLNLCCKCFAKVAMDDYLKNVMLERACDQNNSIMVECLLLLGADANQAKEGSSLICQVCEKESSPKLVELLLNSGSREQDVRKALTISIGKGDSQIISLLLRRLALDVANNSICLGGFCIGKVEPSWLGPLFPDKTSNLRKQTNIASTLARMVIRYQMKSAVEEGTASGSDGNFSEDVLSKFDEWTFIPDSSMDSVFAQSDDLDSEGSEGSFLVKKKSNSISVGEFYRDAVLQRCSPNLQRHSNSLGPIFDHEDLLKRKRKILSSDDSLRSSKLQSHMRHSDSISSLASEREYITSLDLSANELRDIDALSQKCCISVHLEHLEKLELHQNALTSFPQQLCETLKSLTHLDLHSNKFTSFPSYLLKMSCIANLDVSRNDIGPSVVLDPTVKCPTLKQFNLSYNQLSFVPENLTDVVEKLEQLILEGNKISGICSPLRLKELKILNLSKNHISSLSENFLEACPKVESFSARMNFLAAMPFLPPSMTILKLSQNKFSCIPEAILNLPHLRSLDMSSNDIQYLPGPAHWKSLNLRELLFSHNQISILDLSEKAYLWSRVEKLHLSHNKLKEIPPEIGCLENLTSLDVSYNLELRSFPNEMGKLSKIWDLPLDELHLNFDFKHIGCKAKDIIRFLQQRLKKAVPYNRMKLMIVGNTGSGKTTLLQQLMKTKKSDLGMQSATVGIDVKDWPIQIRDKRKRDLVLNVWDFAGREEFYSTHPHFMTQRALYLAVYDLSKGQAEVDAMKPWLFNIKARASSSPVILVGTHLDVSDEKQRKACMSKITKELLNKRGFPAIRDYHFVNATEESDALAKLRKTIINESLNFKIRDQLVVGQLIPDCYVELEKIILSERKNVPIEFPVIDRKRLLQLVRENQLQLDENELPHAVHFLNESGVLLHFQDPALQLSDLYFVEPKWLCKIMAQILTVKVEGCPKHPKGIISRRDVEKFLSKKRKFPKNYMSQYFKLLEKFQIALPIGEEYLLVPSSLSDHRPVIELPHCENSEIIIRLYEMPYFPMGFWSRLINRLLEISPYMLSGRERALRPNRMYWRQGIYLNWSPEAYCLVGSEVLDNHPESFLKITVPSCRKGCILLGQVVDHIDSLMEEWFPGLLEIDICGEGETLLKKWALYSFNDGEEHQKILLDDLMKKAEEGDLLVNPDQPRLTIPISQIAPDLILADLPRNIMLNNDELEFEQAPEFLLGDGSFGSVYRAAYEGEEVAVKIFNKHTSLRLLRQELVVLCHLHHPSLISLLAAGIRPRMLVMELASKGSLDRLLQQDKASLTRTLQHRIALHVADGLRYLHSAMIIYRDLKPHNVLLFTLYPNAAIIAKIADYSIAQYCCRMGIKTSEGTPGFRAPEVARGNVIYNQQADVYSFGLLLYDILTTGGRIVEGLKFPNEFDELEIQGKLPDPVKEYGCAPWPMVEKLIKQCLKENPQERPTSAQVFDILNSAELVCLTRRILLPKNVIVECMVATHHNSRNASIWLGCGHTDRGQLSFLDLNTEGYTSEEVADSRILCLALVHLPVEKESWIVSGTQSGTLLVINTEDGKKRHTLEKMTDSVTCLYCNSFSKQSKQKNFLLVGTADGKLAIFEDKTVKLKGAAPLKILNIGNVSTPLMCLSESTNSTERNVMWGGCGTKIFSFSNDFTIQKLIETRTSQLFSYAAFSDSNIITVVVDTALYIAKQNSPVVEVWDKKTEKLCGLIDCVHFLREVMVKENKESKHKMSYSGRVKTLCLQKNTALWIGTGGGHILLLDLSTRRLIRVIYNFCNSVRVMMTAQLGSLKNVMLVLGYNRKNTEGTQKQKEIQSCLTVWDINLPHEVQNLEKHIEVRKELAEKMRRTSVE

Regarding `COCc1cn(Cc2nc3cnc4ccc(F)cc4c3n2C2CN(C)CC2(F)F)nn1` (stereo not drawn) [Example 53, 1-(4,4-difluoro-1-methylpyrrolidin-3-yl)-8-fluoro-2-{[4-(methoxymethyl)-1H-1,2,3-triazol-1-yl]methyl}-1H-imidazo[4,5-c]quinoline], the negative-log IC50 (pIC50) in assay [1] (wild type LRRK2) is 8.12; on mutant G2019S LRRK2 (setting [2]) it was 8.13.
Turning to `COc1cnn(Cc2nc3cnc4ccc(C#N)cc4c3n2[C@@H]2CCN(C)C2)c1` [Example 36, 2-[(4-methoxy-1H-pyrazol-1-yl)methyl]-1-[(3R)-1-methylpyrrolidin-3-yl]-1H-imidazo[4,5-c]quinoline-8-carbonitrile], the pIC50 is 8.30 in assay [1] (wild type LRRK2) and 8.33 on mutant G2019S LRRK2 (setting [2]).
Take `CC1(C)CC(n2c(Cn3cncn3)nc3cnc4ccc(Cl)cc4c32)CCO1` (stereo not drawn) [Example 71, 8-chloro-1-(2,2-dimethyltetrahydro-2H-pyran-4-yl)-2-(1H-1,2,4-triazol-1-ylmethyl)-1H-imidazo[4,5-c]quinoline]: the pIC50 was 7.86 in assay [1] (wild type LRRK2) and 7.92 on mutant G2019S LRRK2 (setting [2]).
Regarding `Cc1cnn(Cc2nc3cnc4ccc(C#N)cc4c3n2C2CN(C)CC2(F)F)n1` (single isomer, unassigned) [Example 4, 1-(4,4-Difluoro-1-methylpyrrolidin-3-yl)-2-[(4-methyl-2H-1,2,3-triazol-2-yl)methyl]-1H-imidazo[4,5-c]quinoline-8-carbonitrile], the pIC50 is 7.75 in assay [1] (wild type LRRK2) and 8.48 at mutant G2019S LRRK2 (setting [2]).
Regarding `Cc1nnc(Cc2nc3cnc4ccc(C#N)cc4c3n2[C@@H]2CCN(C)C2)s1` [Example 37, 1-[(3R)-1-methylpyrrolidin-3-yl]-2-[(5-methyl-1,3,4-thiadiazol-2-yl)methyl]-1H-imidazo[4,5-c]quinoline-8-carbonitrile], the pIC50 in assay [1] (wild type LRRK2) is 8.28; on mutant G2019S LRRK2 (setting [2]), 7.90.
Turning to `C[C@@H]1C[C@H](n2c(Cc3nccs3)nc3cnc4ccc(Cl)cc4c32)CCO1` [Example 58, 8-chloro-1-[(2R,4R)-2-methyltetrahydro-2H-pyran-4-yl]-2-(1,3-thiazol-2-ylmethyl)-1H-imidazo[4,5-c]quinoline], the pIC50 in assay [1] (wild type LRRK2) is 8.27; at mutant G2019S LRRK2 (setting [2]), 8.52.
The corresponding values for `Cc1nc(Cc2nc3cnc4ccc(Cl)cc4c3n2C2CCOCC2(F)F)no1` (stereo not drawn) [Example 75] are 7.59 and 7.58.
Consider `Cc1cn(Cc2nc3cnc4ccc(Cl)cc4c3n2C2CCOCC2(F)F)nn1` (stereo not drawn) [enantiomer of Example 46, 8-chloro-1-(3,3-difluorotetrahydro-2H-pyran-4-yl)-2-[(4-methyl-1H-1,2,3-triazol-1-yl)methyl]-1H-imidazo[4,5-c]quinoline], for which the pIC50 is 7.67 in assay [1] (1 mM ATP) and 7.79 at mutant G2019S LRRK2 (1 mM ATP, read-out: LRRK2, G2019S mutant IC50).
Turning to `CC(C#N)Cc1nc2cnc3ccc(Cl)cc3c2n1[C@@H]1CCO[C@H](C)C1` (stereo partly drawn) [Example 78, 3-{8-chloro-1-[(2R,4R)-2-methyltetrahydro-2H-pyran-4-yl]-1H-imidazo[4,5-c]quinolin-2-yl}-2-methylpropanenitrile], the figures for the pIC50 (in assay [1] (wild type LRRK2); on mutant G2019S LRRK2 (setting [2])) were 7.59 and 7.88, respectively.
Take `Cc1cc(Cc2nc3cnc4ccc(C#N)cc4c3n2[C@@H]2CCN(C)C2)on1` [Example 35, 2-[(3-methyl-1,2-oxazol-5-yl)methyl]-1-[(3R)-1-methylpyrrolidin-3-yl]-1H-imidazo [4,5-c]quinoline-8-carbonitrile]: the values for the pIC50 (in assay [1] (wild type LRRK2); at mutant G2019S LRRK2 (setting [2])) were 8.12 and 8.21, respectively.
In the same order, the values of `C[C@@H]1C[C@H](n2c(Cc3cscn3)nc3cnc4ccc(C(F)(F)F)cc4c32)CCO1` [Example 69, 1-[(2R,4R)-2-methyltetrahydro-2H-pyran-4-yl]-2-(1,3-thiazol-4-ylmethyl)-8-(trifluoromethyl)-1H-imidazo[4,5-c]quinoline] are 8.13 and 8.48.
As for `Cc1cnc(Cc2nc3cnc4ccc(Cl)cc4c3n2[C@@H]2CC[C@H](F)C2)cn1` (relative stereo) [Example 77, 8-chloro-1-[cis-3-fluorocyclopentyl]-2-[(5-methylpyrazin-2-yl)methyl]-1H-imidazo[4,5-c]quinoline], the pIC50 in assay [1] (wild type LRRK2) is 7.89; at mutant G2019S LRRK2 (setting [2]), 7.93.
In the case of `Cc1cn(Cc2nc3cnc4ccc(C(F)F)cc4c3n2[C@@H]2CCO[C@H](C)C2)nn1` [Example 90, 8-(difluoromethyl)-1-[(2R,4R)-2-methyltetrahydro-2H-pyran-4-yl]-2-[(4-methyl-1H-1,2,3-triazol-1-yl)methyl]-1H-imidazo[4,5-c]quinoline], the pIC50 is 7.83 in assay [1] (wild type LRRK2) and 8.14 at mutant G2019S LRRK2 (setting [2]).
Turning to `C[C@@H]1C[C@H](n2c(Cc3nccs3)nc3cnc4ccc(F)cc4c32)CCO1` [Example 64, 8-fluoro-1-[(2R,4R)-2-methyltetrahydro-2H-pyran-4-yl]-2-(1,3-thiazol-2-ylmethyl)-1H-imidazo[4,5-c]quinoline], the pIC50 in assay [1] (wild type LRRK2) was 8.01; on mutant G2019S LRRK2 (setting [2]), 8.16.
For the molecule `Cc1cc(Cc2nc3cnc4ccc(C(F)(F)F)cc4c3n2[C@@H]2CCO[C@H](C)C2)ncn1` [Example 76, 2-[(6-methylpyrimidin-4-yl)methyl]-1-[(2R,4R)-2-methyltetrahydro-2H-pyran-4-yl]-8-(trifluoromethyl)-1H-imidazo[4,5-c]quinoline], the pIC50 is 7.76 in assay [1] (wild type LRRK2) and 7.92 on mutant G2019S LRRK2 (setting [2]).
Consider `CN1CC(n2c(Cn3cc(C4CC4)nn3)nc3cnc4ccc(Cl)cc4c32)C(F)(F)C1` (stereo not drawn) [Example 47, 8-chloro-2-[(4-cyclopropyl-1H-1,2,3-triazol-1-yl)methyl]-1-(4,4-difluoro-1-methylpyrrolidin-3-yl)-1H-imidazo[4,5-c]quinoline], for which the pIC50 in assay [1] (wild type LRRK2) is 8.55; on mutant G2019S LRRK2 (setting [2]), 8.85.
Take `CCc1nc2cnc3ccc(Cl)cc3c2n1[C@H]1CCO[C@@H](CC#N)C1` [Example 2, [(2R,4S)-4-(8-Chloro-2-ethyl-1H-imidazo[4,5-c]quinolin-1-yl)tetrahydro-2H-pyran-2-yl]acetonitrile]: in assay [1] (wild type LRRK2), the pIC50 was 5.82.
Molecule `CN1CC(n2c(Cn3cc(C4CC4)nn3)nc3cnc4ccc(Cl)cc4c32)C(F)(F)C1` (stereo not drawn) [enantiomer of Example 47, 8-chloro-2-[(4-cyclopropyl-1H-1,2,3-triazol-1-yl)methyl]-1-(4,4-difluoro-1-methylpyrrolidin-3-yl)-1H-imidazo[4,5-c]quinoline] showed a pIC50 in assay [1] (1 mM ATP) of 7.01.
With `COCc1cn(Cc2nc3cnc4ccc(Cl)cc4c3n2C2CCOCC2(F)F)nn1` (stereo not drawn) [enantiomer of Example 55, 8-chloro-1-(3,3-difluorotetrahydro-2H-pyran-4-yl)-2-{[4-(methoxymethyl)-1H-1,2,3-triazol-1-yl]methyl}-1H-imidazo[4,5-c]quinoline], in assay [1] (1 mM ATP), the pIC50 is 7.82.
Still for that read-out and setting: then `Cc1nc(Cc2nc3cnc4ccc(C#N)cc4c3n2C2CN(C)CC2(F)F)no1` (stereo not drawn) [enantiomer of Example 32, 1-(4,4-difluoro-1-methylpyrrolidin-3-yl)-2-[(5-methyl-1,2,4-oxadiazol-3-yl)methyl]-1H-imidazo[4,5-c]quinoline-8-carbonitrile], with 6.33; and `Cc1nnc(Cc2nc3cnc4ccc(Cl)cc4c3n2C2CCOCC2(F)F)s1` (stereo not drawn) [enantiomer of Example 92, 8-chloro-1-(3,3-difluorotetrahydro-2H-pyran-4-yl)-2-[(5-methyl-1,3,4-thiadiazol-2-yl)methyl]-1H-imidazo[4,5-c]quinoline], with 7.47; and `Cc1cn(Cc2nc3cnc4ccc(Cl)cc4c3n2C2CN(C)CC2(F)F)nn1` (stereo not drawn) [enantiomer of Example 48, 8-chloro-1-(4,4-difluoro-1-methylpyrrolidin-3-yl)-2-[(4-methyl-1H-1,2,3-triazol-1-yl)methyl]-1H-imidazo[4,5-c]quinoline], with 6.84.
In assay [1] (wild type LRRK2), `Cc1cnn(Cc2nc3cnc4ccc(C#N)cc4c3n2C2CN(C)CC2(F)F)n1` (single isomer, unassigned) [Example 3, 1-(4,4-Difluoro-1-methylpyrrolidin-3-yl)-2-[(4-methyl-2H-1,2,3-triazol-2-yl)methyl]-1H-imidazo[4,5-c]quinoline-8-carbonitrile] showed a pIC50 of 7.50.
Turning to `Cc1nc2cnc3ccc(Cl)cc3c2n1[C@H]1CCO[C@@H](CC#N)C1` (relative stereo) [enantiomer of Example 31, [cis-4-(8-chloro-2-methyl-1H-imidazo[4,5-c]quinolin-1-yl)tetrahydro-2H-pyran-2-yl]acetonitrile], the pIC50 in assay [1] (1 mM ATP) was 5.78.
In the case of `Cc1nn2cc(Cc3nc4cnc5ccc(F)cc5c4n3C3CN(C)CC3(F)F)nc2s1` (stereo not drawn) [Example 85, 1-(4,4-difluoro-1-methylpyrrolidin-3-yl)-8-fluoro-2-[(2-methylimidazo[2,1-b][1,3,4]thiadiazol-6-yl)methyl]-1H-imidazo[4,5-c]quinoline], in assay [1] (wild type LRRK2), the pIC50 was 8.58.
In assay [1] (1 mM ATP), `Cc1cnc(Cc2nc3cnc4ccc(Cl)cc4c3n2C2CN(C)CC2(F)F)cn1` (stereo not drawn) [enantiomer of Example 50, 8-chloro-1-(4,4-difluoro-1-methylpyrrolidin-3-yl)-2-[(5-methylpyrazin-2-yl)methyl]-1H-imidazo[4,5-c]quinoline] showed a pIC50 of 6.74.
